This is an account of results in ChEMBL document CHEMBL1126970, “Development of 1,4-benzodiazepine cholecystokinin type B antagonists” (J Med Chem, 1993).

By IC50 is commonly meant the midpoint of a concentration-inhibition curve. The term ED50 denotes the dose at which the effect has come halfway, by size or by number of responders.

Data set [1] is described as follows: Bioavailability in rat after 30 minutes at an oral dose of 2.5 mg/kg. Particulars: plasma. It is filed as ADME, organism-based.
Data set [2] has as its target T1, Cholecystokinin receptor type A (Rattus norvegicus, UniProt P30551).
T1 sequence (P30551 whole entry): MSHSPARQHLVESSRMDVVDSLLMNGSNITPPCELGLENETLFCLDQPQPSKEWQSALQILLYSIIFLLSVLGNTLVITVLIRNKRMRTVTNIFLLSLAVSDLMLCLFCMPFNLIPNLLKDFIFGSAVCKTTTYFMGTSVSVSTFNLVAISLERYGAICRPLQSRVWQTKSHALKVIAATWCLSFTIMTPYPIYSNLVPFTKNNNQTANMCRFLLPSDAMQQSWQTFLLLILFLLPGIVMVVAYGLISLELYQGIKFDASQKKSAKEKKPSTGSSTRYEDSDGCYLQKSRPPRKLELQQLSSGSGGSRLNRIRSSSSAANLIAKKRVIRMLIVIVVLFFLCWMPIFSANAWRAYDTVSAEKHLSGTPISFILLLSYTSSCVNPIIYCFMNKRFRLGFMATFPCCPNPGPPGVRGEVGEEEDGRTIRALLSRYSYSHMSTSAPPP
The experiment in a line: Inhibition of binding of [125I]CCK-8 to cholecystokinin type A receptor in rat pancreatic tissue.

Data set [3] can be described thus: Bioavailability in rat after 120 minutes at an oral dose of 2.5 mg/kg. Format: ADME, organism-based. Particulars: plasma.
The species entered for the next data set is Cavia porcellus. The experiment in a line: Selectivity ratio between CCK-B and CCK-A receptor. The arrangement: reference not given here.
Data set [4] concerns Mus musculus. The experiment in a line: Effective dose required to antagonise pentagastrin stimulated acid secretion in mouse when administered orally 85-100 min prior to pentagastrin. Format: functional. Conditions: po.
Data set [5] has as its system Mus musculus. The experiment in a line: Effective dose required to antagonise pentagastrin stimulated acid secretion in mouse when administered iv 60-80 min prior to pentagastrin. It is filed as functional.
Data set [6] has as its system Mus musculus. The experiment in a line: Effective dose required to antagonise pentagastrin stimulated acid secretion in mouse when administered iv 5 min prior to pentagastrin. Format: functional.
The nature of data set [7]: Inhibition of binding of [125I]-CCK-8 to the cholecystokinin type B receptor.

As to `Cc1cccc(NC(=O)NC2N=C(c3ccccc3)c3ccccc3N(CCO)C2=O)c1` (racemic), the concentration at 0.5 h in data set [1] was 156 ng/mL. Also, the IC50 in data set [2] turned out to be 270 nM. The molecule also returned a concentration at 2 h in data set [3] of 95 ng/mL. The Selectivity ratio in the data set filed under Cavia porcellus stood at 6.
The like results for `Cc1cccc(NC(=O)NC2N=C(c3cccnc3)c3ccccc3N(C)C2=O)c1` (racemic) were, in that order, 219 ng/mL, 2300 nM, 191 ng/mL and 25.
For the molecule `CCOC(=O)CN1C(=O)C(NC(=O)Nc2ccc(Cl)cc2)N=C(c2ccccc2F)c2ccccc21` (racemic), the ED50 in the data set with Mus musculus [4] was 6 mg/kg; in the data set on Mus musculus [5], more than 2 mg/kg; in the data set with Mus musculus [6], 0.7 mg/kg. The molecule further had an IC50 in data set [7] of 1.2 nM. Besides, in the data set filed under Cavia porcellus, the Selectivity ratio was 183.
The molecule `CCOC(=O)CN1C(=O)C(NC(=O)c2ccc(Cl)cc2)N=C(c2ccccc2F)c2ccccc21` (racemic) returned an IC50 in data set [7] of 1900 nM. Also, in the data set filed under Cavia porcellus, the Selectivity ratio came out at 0.06.
In data set [1], `CN1C(=O)C(NC(=O)Nc2cccc(C(F)(F)F)c2)N=C(c2ccccc2)c2ccccc21` (centres undefined) showed a concentration at 0.5 h of 120 ng/mL. Also, in data set [2], the IC50 was 740 nM. Also, in data set [3], the concentration at 2 h came to 102 ng/mL. The Selectivity ratio in the data set filed under Cavia porcellus was determined as 195.
